These results are taken from US12275744B2, “Pyrazole and imidazole derivatives, compositions and methods as orexin antagonists” (HAGER BIOSCIENCES, LLC, priority 2019, dated 2025).

The target in one test is T1, human orexin-1 receptor (Homo sapiens, UniProt O43613).
T1 sequence (O43613 1-425): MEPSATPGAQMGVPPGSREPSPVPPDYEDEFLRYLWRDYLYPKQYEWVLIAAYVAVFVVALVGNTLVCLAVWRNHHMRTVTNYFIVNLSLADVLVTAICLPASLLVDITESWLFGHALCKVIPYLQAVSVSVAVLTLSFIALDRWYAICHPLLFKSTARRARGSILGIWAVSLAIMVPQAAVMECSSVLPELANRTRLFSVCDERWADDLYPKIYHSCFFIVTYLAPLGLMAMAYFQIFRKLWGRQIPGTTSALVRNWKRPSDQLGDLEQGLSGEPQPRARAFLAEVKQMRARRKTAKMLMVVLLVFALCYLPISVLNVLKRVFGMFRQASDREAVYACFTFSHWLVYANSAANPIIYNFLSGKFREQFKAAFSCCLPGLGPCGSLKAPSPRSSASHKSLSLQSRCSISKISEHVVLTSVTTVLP
As to the kind of experiment: Intracellular calcium measurement (FLIPR), antagonism of orexin-A response in CHO cells expressing OX1R. The note with it: for inhibition at 1 µM: CHO, read-out: % Inhibition of OX1R @1 uM compound. On the technique in general: Calcium flux is commonly read through the fluorescence of an indicator in the cells.

Another test concerns the target T2, human orexin-2 receptor (Homo sapiens, UniProt O43614).
T2 sequence (O43614 1-444): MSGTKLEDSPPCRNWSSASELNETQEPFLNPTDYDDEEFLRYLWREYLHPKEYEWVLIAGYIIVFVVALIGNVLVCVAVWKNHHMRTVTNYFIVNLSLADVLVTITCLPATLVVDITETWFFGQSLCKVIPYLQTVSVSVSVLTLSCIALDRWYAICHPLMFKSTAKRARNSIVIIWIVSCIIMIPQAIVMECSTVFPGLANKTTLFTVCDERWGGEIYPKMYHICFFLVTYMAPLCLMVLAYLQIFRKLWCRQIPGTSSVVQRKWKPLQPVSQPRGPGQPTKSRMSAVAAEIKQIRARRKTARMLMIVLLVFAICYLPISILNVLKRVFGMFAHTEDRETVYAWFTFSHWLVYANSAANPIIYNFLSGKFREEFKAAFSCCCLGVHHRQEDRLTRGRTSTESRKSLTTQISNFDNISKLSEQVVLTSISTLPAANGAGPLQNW
Briefly: Intracellular calcium measurement (FLIPR), antagonism of orexin-A response in CHO cells expressing OX2R. As to conditions: for inhibition at 1 µM: CHO, read-out: % Inhibition of OX2R @1 uM compound.

A further test addresses T3, OX1R (Homo sapiens, UniProt O43613).
T3 sequence (O43613 1-425): T1 sequence (O43613 1-425)
The note with it: relative to Orexin B; Kodadek and Cai 2010; cited from earlier work.

Experimental for human orexin-1 receptor: (§1) In Vitro Assay: Intracellular Calcium Measurements:
(§2) Chinese hamster ovary (CHO) cells expressing the human orexin-1 receptor and the human orexin-2 receptor, respectively, are grown in culture medium (Ham F-12 with L-Glutamine) containing 300 μg/mL G418, 100 U/mL penicillin, 100 μg/mL streptomycin and 10% heat inactivated fetal calf serum (FCS). The cells are seeded at 20,000 cells/well into 384-well black clear bottom sterile plates (Greiner). The seeded plates are incubated overnight at 37° C. in 5% CO2.
(§3) Within the Fluorescent Imaging Plate Reader (FLIPR Tetra, Molecular Devices), antagonists are added to the plate in a volume of 10 μL/well, incubated for 120 min and finally 10 μL/well of agonist is added. Fluorescence is measured for each well at 1 second intervals, and the height of each fluorescence peak is compared to the height of the fluorescence peak-induced by 3 nM orexin-A with vehicle in place of antagonist. […] Optimized conditions were achieved by adjustment of pipetting speed and cell splitting regime. The calculated IC50 values may fluctuate depending on the daily cellular assay performance.
Experimental for human orexin-2 receptor: as §1, §2, §3

Usually IC50 stands for the midpoint of a concentration-inhibition curve. The term Kb denotes the equilibrium dissociation constant of an antagonist, usually derived from a functional assay. By inhibition is commonly meant the change of the read-out against control, counted positive when it falls. Turning to `O=C(c1c(-c2ccccc2)nc2ccccn12)N1CCC[C@H]1COc1ccc(C(F)(F)F)cn1` [Example 18], at human orexin-1 receptor, the half-inhibitory concentration (IC50) turned out to be 293 nM, the Kb turned out to be 62 nM and the inhibition at 1 µM was 70%. The inhibition at 1 µM at human orexin-2 receptor was determined as 29.6%.
Turning to `CCc1cnc(NC[C@@H]2[C@H](C)CCCN2C(=O)c2c(-c3ccccc3)nn3c2COCC3)nc1` [Example 5], on human orexin-1 receptor, the IC50 came out at 136 nM, the Kb came out at 29 nM and the inhibition at 1 µM is 71%. Moreover, on human orexin-2 receptor, the inhibition at 1 µM was found to be 0.4%.
On to `CCc1cnc(NC[C@@H]2CCCN2C(=O)c2c(-c3ccccc3)nn3c2COCC3)nc1` [Example 3], for which the inhibition at 1 µM was found to be 14% at human orexin-1 receptor and 14.2% on human orexin-2 receptor.
For `C[C@@H]1CCCN(C(=O)c2c(-c3ccccc3)nc3ccccn23)[C@@H]1CNc1ccc(C(F)(F)F)cn1` [Example 8], on human orexin-1 receptor, the IC50 is 5 nM, the Kb amounted to 1 nM and the inhibition at 1 µM was 86.1%. Moreover, the inhibition at 1 µM at human orexin-2 receptor was found to be 13.8%.
As for `CCc1cnc(OC[C@@H]2CCCN2C(=O)c2c(-c3ccccc3)nn3ccccc23)nc1` [Example 21], the inhibition at 1 µM was found to be 38.8% at human orexin-1 receptor and 26.9% at human orexin-2 receptor.
On to `CCc1cnc(NC[C@@H]2CCCN2C(=O)c2c(-c3ccccc3)nc3ccccn23)nc1` [Example 14], for which the inhibition at 1 µM came to 14.8% at human orexin-1 receptor and 18.3% on human orexin-2 receptor.
For `O=C(c1c(-c2ccccc2)nn2ccccc12)N1CCC[C@H]1Cn1ccc(-c2ccccc2)n1` [Example 13], the inhibition at 1 µM at human orexin-1 receptor came out at 96.6%. Also, on human orexin-2 receptor, the IC50 was found to be 70 nM, the Kb was 9 nM and the inhibition at 1 µM stood at 78.5%.
In the case of `O=C(c1c(-c2ccccc2)nn2ccccc12)N1CCC[C@H]1COc1ccc(C(F)(F)F)cn1` [Example 20], at human orexin-1 receptor, the IC50 came out at 11 nM, the Kb came to 2 nM and the inhibition at 1 µM was found to be 84.9%. Moreover, at human orexin-2 receptor, the inhibition at 1 µM was 49.6%.
Consider `CCc1cnc(OC[C@@H]2CCCN2C(=O)c2c(-c3ccccc3)nc3ccccn23)nc1` [Example 19], for which the inhibition at 1 µM on human orexin-1 receptor was -10.8%; at human orexin-2 receptor, 11.2%.
Consider `CCc1cnc(NC[C@@H]2CCCN2C(=O)c2c(-c3ccccc3)nn3ccccc23)nc1` [Example 15], for which, on human orexin-1 receptor, the IC50 is 178 nM, the Kb was found to be 37 nM and the inhibition at 1 µM is 54.1%. For the same compound, the inhibition at 1 µM at human orexin-2 receptor is 37.3%.
For `O=C(c1c(-c2ccccc2)nn2ccccc12)N1CCC[C@H]1CNc1ccc(C(F)(F)F)cn1` [Example 10], in that order: 3.5 nM, 0.7 nM, 86.9% and 43.5%.
The like results for `C[C@@H]1CCCN(C(=O)c2c(-c3ccccc3)nn3c2COCC3)[C@@H]1CNc1ccc(C(F)(F)F)cn1` [Example 7] were, in that order, 9 nM, 2 nM, 80.1% and 2.44%.
As for `O=C(c1c(-c2ccccc2)nn2c1COCC2)N1CCC[C@H]1COc1ccc(C(F)(F)F)cn1` [Example 17], the inhibition at 1 µM on human orexin-1 receptor stood at 45.1%; at human orexin-2 receptor it was 5.78%.
Regarding `C[C@@H]1CCCN(C(=O)c2c(-c3ccccc3)nn3ccccc23)[C@@H]1CNc1ccc(C(F)(F)F)cn1` [Example 6], on human orexin-1 receptor, the IC50 came out at 8 nM, the Kb came to 1.7 nM and the inhibition at 1 µM turned out to be 87.6%. On human orexin-2 receptor, the inhibition at 1 µM worked out at 38.5%.
For `O=C(c1c(-c2ccccc2)nn2c1COCC2)N1CCC[C@H]1Cn1ccc(-c2ccccc2)n1` [Example 1], in that order: 33 nM, 7 nM, 69.7% and 28.2%.
Turning to `O=C(c1c(-c2ccccc2)nc2ccccn12)N1CCC[C@H]1Cn1ccc(-c2ccccc2)n1` [Example 12], on human orexin-1 receptor, the IC50 was found to be 2 nM, the Kb was determined as 0.5 nM and the inhibition at 1 µM came out at 88.9%. At human orexin-2 receptor, the inhibition at 1 µM turned out to be 46.1%.
For `O=C(c1c(-c2ccccc2)nn2c1COCC2)N1CCC[C@H]1CNc1ccc(C(F)(F)F)cn1` [Example 2], in that order: 122 nM, 26 nM, 62.8% and 20.9%.
In the case of `CCc1cnc(NC[C@@H]2[C@H](C)CCCN2C(=O)c2c(-c3ccccc3)nc3ccccn23)nc1` [Example 9], on human orexin-1 receptor, the IC50 amounted to 59 nM, the Kb came to 12 nM and the inhibition at 1 µM amounted to 76.8%. Besides, the inhibition at 1 µM on human orexin-2 receptor was -2.51%.
Regarding `CCc1cnc(NC[C@@H]2[C@H](C)CCCN2C(=O)c2c(-c3ccccc3)nn3ccccc23)nc1` [Example 4], the inhibition at 1 µM is 85.7% at human orexin-1 receptor and 12.8% on human orexin-2 receptor.
Consider `O=C(c1c(-c2ccccc2)nc2ccccn12)N1CCC[C@H]1CNc1ccc(C(F)(F)F)cn1` [Example 11], for which, on human orexin-1 receptor, the IC50 came out at 39 nM, the Kb is 8 nM and the inhibition at 1 µM is 67.1%. The inhibition at 1 µM on human orexin-2 receptor came to 21.6%.
As to `CCc1cnc(OC[C@@H]2CCCN2C(=O)c2c(-c3ccccc3)nn3c2COCC3)nc1` [Example 16], the inhibition at 1 µM on human orexin-1 receptor was 0.59%; on human orexin-2 receptor, 7.77%.
In the case of “Orexin A: excitatory hypothalamic neuropeptide, a 33 amino acid peptide; endogenous ligand of OX1R and OX2R (QPLPDCCRQKTCSCRLYELLHGAGNHAAGILTL; Orexin-A; UniProt O43612 34-66, looked up)”, in the test with OX1R, the “affinity for OX1R, higher than Orexin B” value is given as “about 100 fold”.
